Experimental data: ChEMBL document CHEMBL5465560, “Selectivity Literature for EUbOPEN Chemogenomic Library” (2024)

How the values were obtained:
[1] = molecular target: Serine/threonine-protein kinase PLK3 (Homo sapiens, UniProt Q9H4B4); experiment: Selectivity interaction (Ambit KINOMEscan and KiNATiv profiling in Jurkat cells) EUB0000090b PLK3; type: cell-based; settings: at 1 µM
[2] = test system: Tyrosine-protein kinase ABL1 (Homo sapiens), P00519 [T315I]; experiment: Selectivity interaction (KinomeScan (DiscoverX)) EUB0001079a ABL1; settings: at 1 µM
[3] = molecular target: Calcium/calmodulin-dependent protein kinase type II subunit delta (Homo sapiens) (UniProt Q13557); experiment: Selectivity interaction (KinomeScan (DiscoverX)) EUB0000607a CAMK2D; settings: at 10 µM
Sequence of Calcium/calmodulin-dependent protein kinase type II subunit delta (Homo sapiens) (Q13557 whole entry): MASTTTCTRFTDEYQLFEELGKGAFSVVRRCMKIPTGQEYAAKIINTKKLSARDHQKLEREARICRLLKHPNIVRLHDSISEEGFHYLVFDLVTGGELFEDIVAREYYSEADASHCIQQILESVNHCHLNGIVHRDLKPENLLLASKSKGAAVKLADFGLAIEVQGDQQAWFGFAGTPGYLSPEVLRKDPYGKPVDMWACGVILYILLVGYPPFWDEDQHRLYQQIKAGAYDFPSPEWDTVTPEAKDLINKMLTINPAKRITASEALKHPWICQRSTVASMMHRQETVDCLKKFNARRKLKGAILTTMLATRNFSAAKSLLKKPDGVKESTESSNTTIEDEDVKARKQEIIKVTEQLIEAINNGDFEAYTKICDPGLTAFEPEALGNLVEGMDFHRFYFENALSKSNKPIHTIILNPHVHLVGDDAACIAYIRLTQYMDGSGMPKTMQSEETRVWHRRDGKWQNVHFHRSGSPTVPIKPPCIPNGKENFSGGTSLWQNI

[4] = molecular target: Mitogen-activated protein kinase kinase kinase kinase 5 (Homo sapiens) (UniProt Q9Y4K4); experiment: Selectivity interaction (KinomeScan (DiscoverX)) EUB0000607a MAP4K5; settings: at 10 µM
Sequence of Mitogen-activated protein kinase kinase kinase kinase 5 (Homo sapiens) (Q9Y4K4 whole entry, looked up): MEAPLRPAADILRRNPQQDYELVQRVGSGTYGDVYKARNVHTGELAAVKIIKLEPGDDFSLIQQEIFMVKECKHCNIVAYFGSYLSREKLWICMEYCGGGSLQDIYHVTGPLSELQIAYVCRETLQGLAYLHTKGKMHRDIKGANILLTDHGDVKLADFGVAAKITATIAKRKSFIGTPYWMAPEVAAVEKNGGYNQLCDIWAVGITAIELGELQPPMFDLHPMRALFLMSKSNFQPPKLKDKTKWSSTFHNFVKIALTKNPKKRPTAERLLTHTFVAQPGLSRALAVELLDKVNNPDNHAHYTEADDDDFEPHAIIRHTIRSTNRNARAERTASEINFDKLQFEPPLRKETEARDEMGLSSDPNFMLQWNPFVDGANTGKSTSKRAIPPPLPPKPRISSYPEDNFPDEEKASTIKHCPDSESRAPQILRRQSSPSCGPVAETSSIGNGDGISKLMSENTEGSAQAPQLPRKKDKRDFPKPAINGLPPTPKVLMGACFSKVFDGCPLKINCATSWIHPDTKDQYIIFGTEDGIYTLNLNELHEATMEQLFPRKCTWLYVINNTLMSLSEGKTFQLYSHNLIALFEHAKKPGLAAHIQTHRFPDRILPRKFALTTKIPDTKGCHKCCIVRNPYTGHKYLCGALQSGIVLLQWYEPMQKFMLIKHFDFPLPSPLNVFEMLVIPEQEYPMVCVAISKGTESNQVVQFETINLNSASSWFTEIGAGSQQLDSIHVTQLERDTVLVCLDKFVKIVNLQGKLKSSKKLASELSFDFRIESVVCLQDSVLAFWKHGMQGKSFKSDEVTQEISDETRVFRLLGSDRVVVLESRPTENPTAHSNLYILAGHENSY

[5] = molecular target: T1, Dual specificity mitogen-activated protein kinase kinase 5 (Homo sapiens) (UniProt Q13163); settings: at 10 µM
T1 sequence (whole entry): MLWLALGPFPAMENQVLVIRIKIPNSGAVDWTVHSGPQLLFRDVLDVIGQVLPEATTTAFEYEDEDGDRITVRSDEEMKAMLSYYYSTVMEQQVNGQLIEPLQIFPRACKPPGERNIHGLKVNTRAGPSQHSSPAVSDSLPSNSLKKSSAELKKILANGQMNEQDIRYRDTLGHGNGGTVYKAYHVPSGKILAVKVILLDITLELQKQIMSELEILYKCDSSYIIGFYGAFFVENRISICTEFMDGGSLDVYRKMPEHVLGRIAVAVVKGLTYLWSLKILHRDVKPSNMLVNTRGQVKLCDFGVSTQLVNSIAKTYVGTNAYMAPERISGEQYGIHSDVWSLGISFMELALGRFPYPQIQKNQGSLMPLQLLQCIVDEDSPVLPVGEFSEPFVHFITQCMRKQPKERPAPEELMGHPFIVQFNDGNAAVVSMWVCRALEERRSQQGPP

[6] = molecular target: Receptor-type tyrosine-protein kinase FLT3 (Homo sapiens) (UniProt P36888); settings: at 10 µM
[7] = test system: T2, Receptor-type tyrosine-protein kinase FLT3 (Homo sapiens), P36888 [D835H]; settings: at 10 µM
T2 sequence (whole entry): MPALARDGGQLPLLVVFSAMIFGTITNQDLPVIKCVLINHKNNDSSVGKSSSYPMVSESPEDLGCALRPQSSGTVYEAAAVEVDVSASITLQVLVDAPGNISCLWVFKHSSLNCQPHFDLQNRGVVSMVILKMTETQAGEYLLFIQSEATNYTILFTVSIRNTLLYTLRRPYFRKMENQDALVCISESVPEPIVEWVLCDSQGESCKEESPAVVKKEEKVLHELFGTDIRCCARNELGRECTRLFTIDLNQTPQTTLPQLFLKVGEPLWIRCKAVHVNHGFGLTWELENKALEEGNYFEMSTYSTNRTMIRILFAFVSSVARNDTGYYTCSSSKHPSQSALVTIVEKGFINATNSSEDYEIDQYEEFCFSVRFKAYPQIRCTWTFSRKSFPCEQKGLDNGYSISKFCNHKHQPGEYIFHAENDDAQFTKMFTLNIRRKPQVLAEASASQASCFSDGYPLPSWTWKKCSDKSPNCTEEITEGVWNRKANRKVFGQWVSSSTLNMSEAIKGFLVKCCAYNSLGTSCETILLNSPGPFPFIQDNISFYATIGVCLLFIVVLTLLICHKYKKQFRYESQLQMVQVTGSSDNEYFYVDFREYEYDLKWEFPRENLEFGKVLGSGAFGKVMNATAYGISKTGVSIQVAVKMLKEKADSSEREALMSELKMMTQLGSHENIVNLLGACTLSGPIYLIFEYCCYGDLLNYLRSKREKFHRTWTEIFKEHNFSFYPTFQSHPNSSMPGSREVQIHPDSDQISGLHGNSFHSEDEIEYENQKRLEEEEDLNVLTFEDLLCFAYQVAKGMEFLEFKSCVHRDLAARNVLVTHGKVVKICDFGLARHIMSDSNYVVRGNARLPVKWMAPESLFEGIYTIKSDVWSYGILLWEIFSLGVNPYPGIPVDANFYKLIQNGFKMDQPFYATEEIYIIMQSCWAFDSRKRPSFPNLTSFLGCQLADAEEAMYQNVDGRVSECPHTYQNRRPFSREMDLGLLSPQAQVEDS

[8] = molecular target: T3, Inhibitor of nuclear factor kappa-B kinase subunit alpha (Homo sapiens) (UniProt O15111); experiment: Selectivity interaction (KinomeScan (DiscoverX)) EUB0000229b CHUK; settings: at 10 µM
T3 sequence (whole entry): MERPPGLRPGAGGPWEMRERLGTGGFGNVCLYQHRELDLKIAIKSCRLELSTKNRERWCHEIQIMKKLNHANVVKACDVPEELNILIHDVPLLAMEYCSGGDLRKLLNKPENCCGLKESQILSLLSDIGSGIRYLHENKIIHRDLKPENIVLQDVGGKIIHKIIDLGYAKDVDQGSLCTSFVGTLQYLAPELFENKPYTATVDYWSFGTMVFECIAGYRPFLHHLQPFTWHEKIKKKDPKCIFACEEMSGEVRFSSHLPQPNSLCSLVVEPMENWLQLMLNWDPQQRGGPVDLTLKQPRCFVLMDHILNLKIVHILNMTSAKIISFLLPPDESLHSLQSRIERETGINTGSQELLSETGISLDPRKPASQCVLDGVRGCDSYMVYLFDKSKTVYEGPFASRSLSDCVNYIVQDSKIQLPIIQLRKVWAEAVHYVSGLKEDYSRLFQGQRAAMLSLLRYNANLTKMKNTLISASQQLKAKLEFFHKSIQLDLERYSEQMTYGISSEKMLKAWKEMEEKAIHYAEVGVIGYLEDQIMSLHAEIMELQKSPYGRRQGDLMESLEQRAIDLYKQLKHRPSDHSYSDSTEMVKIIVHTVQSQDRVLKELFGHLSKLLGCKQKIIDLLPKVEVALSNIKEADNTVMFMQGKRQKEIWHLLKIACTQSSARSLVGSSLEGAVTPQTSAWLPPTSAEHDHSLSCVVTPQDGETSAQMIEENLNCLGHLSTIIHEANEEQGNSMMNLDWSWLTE

[9] = test system: Hepatocyte growth factor receptor (Homo sapiens), P08581 [M1250T]; experiment: (§1) Selectivity interaction (KinomeScan (DiscoverX)) EUB0001049a MET; settings: at 1 µM
Sequence of Hepatocyte growth factor receptor (Homo sapiens), P08581 [M1250T] (P08581 whole entry M1250T): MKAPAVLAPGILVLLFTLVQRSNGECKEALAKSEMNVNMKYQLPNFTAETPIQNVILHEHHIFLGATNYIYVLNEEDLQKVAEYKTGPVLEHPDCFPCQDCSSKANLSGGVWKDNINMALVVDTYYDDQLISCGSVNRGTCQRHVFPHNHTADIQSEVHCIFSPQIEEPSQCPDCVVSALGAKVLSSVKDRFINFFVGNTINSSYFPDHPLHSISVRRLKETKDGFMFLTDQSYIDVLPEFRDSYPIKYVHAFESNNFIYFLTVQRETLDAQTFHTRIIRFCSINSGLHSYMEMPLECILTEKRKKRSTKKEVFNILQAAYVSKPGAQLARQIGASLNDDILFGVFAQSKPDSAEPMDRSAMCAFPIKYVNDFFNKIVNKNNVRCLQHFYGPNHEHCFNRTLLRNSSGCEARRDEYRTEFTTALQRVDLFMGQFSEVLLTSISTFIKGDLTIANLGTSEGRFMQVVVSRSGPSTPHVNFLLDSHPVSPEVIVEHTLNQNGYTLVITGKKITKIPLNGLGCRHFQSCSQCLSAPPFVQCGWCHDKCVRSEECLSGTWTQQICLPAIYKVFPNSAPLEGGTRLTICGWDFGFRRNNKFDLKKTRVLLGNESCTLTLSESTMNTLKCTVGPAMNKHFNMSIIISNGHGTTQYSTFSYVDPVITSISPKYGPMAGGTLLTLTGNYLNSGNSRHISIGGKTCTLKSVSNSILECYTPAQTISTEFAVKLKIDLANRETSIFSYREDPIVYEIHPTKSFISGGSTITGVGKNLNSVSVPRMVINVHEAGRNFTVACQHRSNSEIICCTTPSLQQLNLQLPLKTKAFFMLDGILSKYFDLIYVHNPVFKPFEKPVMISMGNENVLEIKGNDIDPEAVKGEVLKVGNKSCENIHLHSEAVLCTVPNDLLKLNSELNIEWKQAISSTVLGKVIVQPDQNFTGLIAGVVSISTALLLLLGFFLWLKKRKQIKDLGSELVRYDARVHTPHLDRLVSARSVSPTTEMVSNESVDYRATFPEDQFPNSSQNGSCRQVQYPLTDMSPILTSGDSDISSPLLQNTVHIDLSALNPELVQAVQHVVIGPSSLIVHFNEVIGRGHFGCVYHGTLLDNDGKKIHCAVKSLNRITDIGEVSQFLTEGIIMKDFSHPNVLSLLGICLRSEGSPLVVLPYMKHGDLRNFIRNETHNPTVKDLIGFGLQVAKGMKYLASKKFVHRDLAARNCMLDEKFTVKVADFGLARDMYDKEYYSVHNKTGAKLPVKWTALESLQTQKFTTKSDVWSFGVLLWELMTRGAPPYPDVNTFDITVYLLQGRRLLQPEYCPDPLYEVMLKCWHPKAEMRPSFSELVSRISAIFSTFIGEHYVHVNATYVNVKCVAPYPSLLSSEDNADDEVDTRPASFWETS

[10] = molecular target: Hepatocyte growth factor receptor (Homo sapiens, UniProt P08581); experiment: as §1; settings: at 1 µM
[11] = test system: Hepatocyte growth factor receptor (Homo sapiens), P08581 [Y1235D]; experiment: as §1; settings: at 1 µM
Sequence of Hepatocyte growth factor receptor (Homo sapiens), P08581 [Y1235D] (P08581 whole entry Y1235D): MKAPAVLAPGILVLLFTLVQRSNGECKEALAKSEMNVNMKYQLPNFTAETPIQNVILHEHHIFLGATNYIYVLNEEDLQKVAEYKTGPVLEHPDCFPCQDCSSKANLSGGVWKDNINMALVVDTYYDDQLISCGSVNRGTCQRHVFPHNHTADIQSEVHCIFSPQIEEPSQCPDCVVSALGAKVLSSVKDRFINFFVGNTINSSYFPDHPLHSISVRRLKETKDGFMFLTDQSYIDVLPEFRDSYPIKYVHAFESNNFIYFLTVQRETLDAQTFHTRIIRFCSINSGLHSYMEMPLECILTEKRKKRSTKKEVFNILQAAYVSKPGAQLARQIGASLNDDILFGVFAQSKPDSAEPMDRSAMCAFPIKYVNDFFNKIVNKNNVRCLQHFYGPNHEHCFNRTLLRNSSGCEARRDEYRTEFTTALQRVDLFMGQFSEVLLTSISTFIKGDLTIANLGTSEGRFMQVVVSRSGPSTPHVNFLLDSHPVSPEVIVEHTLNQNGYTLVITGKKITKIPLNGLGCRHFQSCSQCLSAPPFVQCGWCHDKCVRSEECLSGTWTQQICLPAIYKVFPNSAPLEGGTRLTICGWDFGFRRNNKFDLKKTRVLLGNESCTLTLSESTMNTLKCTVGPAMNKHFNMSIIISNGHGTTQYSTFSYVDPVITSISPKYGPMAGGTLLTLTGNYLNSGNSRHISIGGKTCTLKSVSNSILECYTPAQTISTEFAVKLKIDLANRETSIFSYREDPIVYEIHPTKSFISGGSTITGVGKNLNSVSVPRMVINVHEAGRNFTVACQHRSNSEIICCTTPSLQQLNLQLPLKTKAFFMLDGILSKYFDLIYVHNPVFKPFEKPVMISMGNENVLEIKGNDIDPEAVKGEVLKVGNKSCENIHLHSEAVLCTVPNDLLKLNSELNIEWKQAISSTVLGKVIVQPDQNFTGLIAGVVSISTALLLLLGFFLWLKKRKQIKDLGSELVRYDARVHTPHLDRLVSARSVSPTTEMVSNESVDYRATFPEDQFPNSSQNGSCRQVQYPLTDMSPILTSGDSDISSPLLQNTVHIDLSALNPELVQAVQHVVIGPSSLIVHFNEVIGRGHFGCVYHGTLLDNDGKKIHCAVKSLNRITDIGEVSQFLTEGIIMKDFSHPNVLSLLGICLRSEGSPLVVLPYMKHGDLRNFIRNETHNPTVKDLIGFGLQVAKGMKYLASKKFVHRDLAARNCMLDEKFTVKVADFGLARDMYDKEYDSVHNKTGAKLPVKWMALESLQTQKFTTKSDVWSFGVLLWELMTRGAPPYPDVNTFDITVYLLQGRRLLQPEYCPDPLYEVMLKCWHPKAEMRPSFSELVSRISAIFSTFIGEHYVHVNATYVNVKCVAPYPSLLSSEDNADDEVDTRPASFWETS

[12] = molecular target: 5'-AMP-activated protein kinase catalytic subunit alpha-1 (Homo sapiens, UniProt Q13131); experiment: Selectivity interaction (KinomeScan (DiscoverX)) EUB0000092b PRKAA1; settings: at 10 µM
Sequence of 5'-AMP-activated protein kinase catalytic subunit alpha-1 (Q13131 whole entry, looked up): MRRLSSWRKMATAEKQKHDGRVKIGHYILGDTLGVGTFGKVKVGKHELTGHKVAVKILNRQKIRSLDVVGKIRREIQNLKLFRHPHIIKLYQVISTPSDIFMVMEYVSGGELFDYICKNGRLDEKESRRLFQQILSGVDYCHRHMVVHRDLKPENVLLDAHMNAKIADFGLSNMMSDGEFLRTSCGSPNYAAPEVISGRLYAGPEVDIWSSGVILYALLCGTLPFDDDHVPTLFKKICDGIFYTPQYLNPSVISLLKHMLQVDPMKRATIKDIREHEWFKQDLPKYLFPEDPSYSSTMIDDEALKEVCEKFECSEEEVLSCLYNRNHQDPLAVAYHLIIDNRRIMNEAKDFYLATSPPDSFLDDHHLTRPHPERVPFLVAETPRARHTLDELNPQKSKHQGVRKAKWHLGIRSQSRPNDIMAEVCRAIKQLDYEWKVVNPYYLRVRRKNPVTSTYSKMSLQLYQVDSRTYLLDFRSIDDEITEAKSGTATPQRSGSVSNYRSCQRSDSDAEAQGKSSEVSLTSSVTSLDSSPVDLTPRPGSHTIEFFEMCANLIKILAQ

**Q.** For `CN(C)C/C=C/C(=O)Nc1ccc(C(=O)N2CCCC(Nc3ncc(Cl)c(-c4c[nH]c5ccccc45)n3)C2)cc1` (configuration not stated), which % of control [1] is on record?
**A.** 86%

**Q.** With `Nc1cnc(N2CCc3cc(S(=O)(=O)Nc4c(F)cc(Cl)cc4F)cc(N4CCCC4=O)c32)nc1` [TP-020n] as the compound, how does the % of control [2] read?
**A.** 98%

**Q.** `CNC(=O)Nc1ccc(-c2nc(N3CC4CCC(C3)O4)c3cnn(C4CCC5(CC4)OCCO5)c3n2)cc1` was tested. Which % of control [3] did it give?
**A.** 100%

**Q.** What about the % of control [4] of the same compound?
**A.** 83%

**Q.** Which % of control [5] does the source give for `Cc1cc([C@@H](C)Nc2ccccc2C(=O)O)c2nc(N3CCOCC3)cc(=O)n2c1` [AZD-6482] here?
**A.** 100%

**Q.** And the % of control [6]?
**A.** 13%

**Q.** And the % of control [7]?
**A.** 27%

**Q.** Which % binding [8] does the source give for `COc1cc(N(C)c2ccnc3ccc(C(F)(F)F)cc23)cc(OC)c1OC` here?
**A.** 92%

**Q.** With `COc1cc(Nc2nc(C)cc(-c3cnn4nc(OC)ccc34)n2)cc(C(F)(F)F)c1` as the compound, how does the % of control [9] read?
**A.** 100%

**Q.** What about the % of control [10] of the same compound?
**A.** 93%

**Q.** What about the % of control [11] of the same compound?
**A.** 82%

**Q.** Which % of control [12] does the source give for `CCC(=O)N1CCN(c2ccc(-n3c(=O)ccc4cnc5ccc(-c6cnc7ccccc7c6)cc5c43)cc2C(F)(F)F)CC1` here?
**A.** 91%
